# Data: patent US11053230B2, “3-hydroxy-imidazolidin-4-one compounds as inhibitors of indoleamine 2,3-dioxygenase” (Netherlands Translational Research Center B.V., priority 2017, dated 2021)
# Several values for one entry are separate records, joined by “and”; a condition that tells them apart may be missing. Equal values may be shown once.
# Target: T1, IDO1 (Homo sapiens, UniProt P14902)
# T1 construct: Recombinant full-length IDO1 (Seegers, N., et al.) and all other assay components were diluted in IDO1 reaction buffer; made in house
# T1 sequence (P14902 whole entry): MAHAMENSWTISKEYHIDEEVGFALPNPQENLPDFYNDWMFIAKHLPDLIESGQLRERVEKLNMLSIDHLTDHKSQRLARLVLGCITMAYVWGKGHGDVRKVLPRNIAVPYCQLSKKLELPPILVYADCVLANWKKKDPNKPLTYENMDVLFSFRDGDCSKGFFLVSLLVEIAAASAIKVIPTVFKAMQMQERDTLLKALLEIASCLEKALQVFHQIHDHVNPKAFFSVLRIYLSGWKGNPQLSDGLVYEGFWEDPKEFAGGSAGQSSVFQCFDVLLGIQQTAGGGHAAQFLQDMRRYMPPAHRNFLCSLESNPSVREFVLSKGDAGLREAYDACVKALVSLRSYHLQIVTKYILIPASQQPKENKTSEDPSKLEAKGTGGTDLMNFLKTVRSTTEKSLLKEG
# Test: Biochemical IDO1 assay (NFK GreenScreen)
# Conditions: NFK GreenScreen; 25 nM IDO1, 100 μM L-tryptophan; read-out: IC50, inhibitory potency on IDO1
# In short: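 Recombinant full-length IDO1 in 50 mM NaH2PO4 pH 7.0 with 0.05% Tween-20 and 1% glycerol converted 100 μM L-tryptophan (final) over 60 min at room temperature with compound, 0.3% DMSO.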
row,Compound,IC50
1,"O=C1CN(C(=O)c2c(F)cccc2Cl)C(c2csc(Br)c2)N1O (centres unmarked) [Example 99, 2-(5-Bromo-3-thienyl)-1-(2-chloro-6-fluoro-benzoyl)-3-hydroxy-imidazolidin-4-one]",≤ 1000 nM
2,"O=C1CN(C(=O)c2c(F)ccc(Br)c2F)C(c2csc(Br)c2)N1O (centres unmarked) [Example 101, 1-(3-Bromo-2,6-difluoro-benzoyl)-2-(5-bromo-3-thienyl)-3-hydroxy-imidazolidin-4-one]",≤ 1000 nM
3,"Cc1ccc(F)c(C(=O)N2CC(=O)N(O)C2c2csc(Br)c2)c1F (centres unmarked) [Example 102, 2-(5-Bromo-3-thienyl)-1-(2,6-difluoro-3-methyl-benzoyl)-3-hydroxy-imidazolidin-4-one]",≤ 1000 nM
4,"O=C1CN(C(=O)c2c(F)ccc(C(F)(F)F)c2F)C(c2csc(Br)c2)N1O (centres unmarked) [Example 103, 2-(5-Bromo-3-thienyl)-1-[2,6-difluoro-3-(trifluoromethyl)benzoyl]-3-hydroxy-imidazolidin-4-one]",≤ 1000 nM
5,"CS(=O)(=O)Nc1ccc(F)c(C(=O)N2CC(=O)N(O)C2c2cc(Br)cs2)c1F (centres unmarked) [Example 107, N-[3-[2-(4-bromo-2-thienyl)-3-hydroxy-4-oxo-imidazolidine-1-carbonyl]-2,4-difluoro-phenyl]methanesulfonamide]",≤ 1000 nM
6,"Cc1sc(C2N(O)C(=O)CN2C(=O)c2c(F)cccc2F)cc1Br (centres unmarked) [Example 113, 2-(4-bromo-5-methyl-2-thienyl)-1-(2,6-difluorobenzoyl)-3-hydroxy-imidazolidin-4-one]",≤ 1000 nM
7,"[2H]C([2H])([2H])c1sc(C2N(O)C(=O)CN2C(=O)c2c(F)cccc2F)cc1Br (centres unmarked) [Example 114, 2-[4-Bromo-5-(trideuteriomethyl)-2-thienyl]-1-(2,6-difluorobenzoyl)-3-hydroxy-imidazolidin-4-one]",≤ 1000 nM
8,"O=C1CN(C(=O)c2c(F)cccc2F)C(c2cc(I)c(F)s2)N1O (centres unmarked) [Example 116, 1-(2,6-Difluorobenzoyl)-2-(5-fluoro-4-iodo-2-thienyl)-3-hydroxy-imidazolidin-4-one]",≤ 1000 nM
9,"N#Cc1cc(F)c(C(=O)N2CC(=O)N(O)C2c2cc(Br)cs2)c(F)c1 (centres unmarked) [Example 117, 4-[2-(4-Bromo-2-thienyl)-3-hydroxy-4-oxo-imidazolidine-1-carbonyl]-3,5-difluoro-benzonitrile]",≤ 1000 nM
10,"O=C1CN(C(=O)c2c(F)ccc(-c3ccccc3)c2F)C(c2csc(Br)c2)N1O (centres unmarked) [Example 123, 2-(5-Bromo-3-thienyl)-1-(2,6-difluoro-3-phenyl-benzoyl)-3-hydroxy-imidazolidin-4-one]",≤ 1000 nM
11,"Cn1cc(-c2ccc(F)c(C(=O)N3CC(=O)N(O)C3c3cc(Br)cs3)c2F)cn1 (centres unmarked) [Example 125, 2-(4-Bromo-2-thienyl)-1-[2,6-difluoro-3-(1-methylpyrazol-4-yl)benzoyl]-3-hydroxy-imidazolidin-4-one]",≤ 1000 nM
12,"O=C1CN(C(=O)c2c(F)ccc(B(O)O)c2F)C(c2cc(Br)cs2)N1O (centres unmarked) [Example 126, [3-[2-(4-Bromo-2-thienyl)-3-hydroxy-4-oxo-imidazolidine-1-carbonyl]-2,4-difluoro-phenyl]boronic acid]",≤ 5000 nM and 1000 to 5000 nM

# The remaining lines, values ahead:
row,IC50,Compound
1,≤ 5000 nM and 1000 to 5000 nM,"O=C1CN(C(=O)c2c(F)cccc2C(F)(F)F)C(c2csc(Br)c2)N1O (centres unmarked) [Example 100, 2-(5-Bromo-3-thienyl)-1-[2-fluoro-6-(trifluoromethyl)benzoyl]-3-hydroxy-imidazolidin-4-one]"
2,≤ 1000 nM,"COc1ccc(F)c(C(=O)N2CC(=O)N(O)C2c2csc(Br)c2)c1F (centres unmarked) [Example 104, 2-(5-Bromo-3-thienyl)-1-(2,6-difluoro-3-methoxy-benzoyl)-3-hydroxy-imidazolidin-4-one]"
3,≤ 1000 nM,"Nc1ccc(F)c(C(=O)N2CC(=O)N(O)C2c2cc(Br)cs2)c1F (centres unmarked) [Example 105, 1-(3-Amino-2,6-difluoro-benzoyl)-2-(4-bromo-2-thienyl)-3-hydroxy-imidazolidin-4-one]"
4,≤ 1000 nM,"O=C1CN(C(=O)c2c(F)ccc([N+](=O)[O-])c2F)C(c2cc(Br)cs2)N1O (centres unmarked) [Example 106, 2-(4-Bromo-2-thienyl)-1-(2,6-difluoro-3-nitro-benzoyl)-3-hydroxy-imidazolidin-4-one]"
5,≤ 5000 nM and 1000 to 5000 nM,"NS(=O)(=O)N1CCC(C(=O)N2CC(=O)N(O)C2c2cc(Br)cs2)CC1 (centres unmarked) [Example 108, 4-[2-(4-Bromo-2-thienyl)-3-hydroxy-4-oxo-imidazolidine-1-carbonyl]piperidine-1-sulfonamide]"
6,≤ 5000 nM and 1000 to 5000 nM,"O=C1CN(C(=O)c2c(F)cccc2F)C(c2cc(C3CC3)cs2)N1O (centres unmarked) [Example 109, 2-(4-Cyclopropyl-2-thienyl)-1-(2,6-difluorobenzoyl)-3-hydroxy-imidazolidin-4-one]"
7,≤ 1000 nM,"[2H]c1sc(C2N(O)C(=O)CN2C(=O)c2c(F)cccc2F)cc1Br (centres unmarked) [Example 111, 2-(4-Bromo-5-deuterio-2-thienyl)-1-(2,6-difluorobenzoyl)-3-hydroxy-imidazolidin-4-one]"
8,≤ 1000 nM,"Cc1cc(C2N(O)C(=O)CN2C(=O)c2c(F)cccc2F)sc1Cl (centres unmarked) [Example 112, 2-(5-Chloro-4-methyl-2-thienyl)-1-(2,6-difluorobenzoyl)-3-hydroxy-imidazolidin-4-one]"
9,≤ 1000 nM,"O=C1CN(C(=O)c2c(F)cccc2F)C(c2cc(Br)c(Cl)s2)N1O (centres unmarked) [Example 115, 2-(4-Bromo-5-chloro-2-thienyl)-1-(2,6-difluorobenzoyl)-3-hydroxy-imidazolidin-4-one]"
10,≤ 1000 nM,"O=C1CN(C(=O)c2c(F)ccc(-c3ccccc3)c2F)C(c2cc(Br)cs2)N1O (centres unmarked) [Example 122, 2-(4-Bromo-2-thienyl)-1-(2,6-difluoro-3-phenyl-benzoyl)-3-hydroxy-imidazolidin-4-one]"
11,≤ 1000 nM,"Cn1cc(-c2ccc(F)c(C(=O)N3CC(=O)N(O)C3c3csc(Br)c3)c2F)cn1 (centres unmarked) [Example 124, 2-(5-Bromo-3-thienyl)-1-[2,6-difluoro-3-(1-methylpyrazol-4-yl)benzoyl]-3-hydroxy-imidazolidin-4-one]"
12,≤ 1000 nM,"C#Cc1ccc(F)c(C(=O)N2CC(=O)N(O)C2c2cc(Br)cs2)c1F (centres unmarked) [Example 127, 2-(4-Bromo-2-thienyl)-1-(3-ethynyl-2,6-difluoro-benzoyl)-3-hydroxy-imidazolidin-4-one]"
13,≤ 1000 nM,"C=Cc1ccc(F)c(C(=O)N2CC(=O)N(O)C2c2cc(Br)cs2)c1F (centres unmarked) [Example 128, 2-(4-Bromo-2-thienyl)-1-(2,6-difluoro-3-vinyl-benzoyl)-3-hydroxy-imidazolidin-4-one]"
14,≤ 1000 nM,"CC(=O)NCC#Cc1cc(F)c(C(=O)N2CC(=O)N(O)C2c2cc(Br)cs2)c(F)c1 (centres unmarked) [Example 130, N-[3-[4-[2-(4-Bromo-2-thienyl)-3-hydroxy-4-oxo-imidazolidine-1-carbonyl]-3,5-difluoro-phenyl]prop-2-ynyl]acetamide]"
15,≤ 1000 nM,"O=C1CN(C(=O)c2c(F)ccc(-c3cccs3)c2F)C(c2cc(Br)cs2)N1O (centres unmarked) [Example 131, 2-(4-Bromo-2-thienyl)-1-[2,6-difluoro-3-(2-thienyl)benzoyl]-3-hydroxy-imidazolidin-4-one]"
16,≤ 1000 nM,"O=C1CN(C(=O)c2c(F)ccc(-c3ccc(F)s3)c2F)C(c2cc(Br)cs2)N1O (centres unmarked) [Example 132, 2-(4-Bromo-2-thienyl)-1-[2,6-difluoro-3-(5-fluoro-2-thienyl)benzoyl]-3-hydroxy-imidazolidin-4-one]"
17,≤ 1000 nM,"Cc1ccccc1-c1ccc(F)c(C(=O)N2CC(=O)N(O)C2c2cc(Br)cs2)c1F (centres unmarked) [Example 133, 2-(4-Bromo-2-thienyl)-1-[2,6-difluoro-3-(o-tolyl)benzoyl]-3-hydroxy-imidazolidin-4-one]"
18,≤ 1000 nM,"O=C1CN(C(=O)c2c(F)ccc(-c3cccc4ccccc34)c2F)C(c2cc(Br)cs2)N1O (centres unmarked) [Example 134, 2-(4-Bromo-2-thienyl)-1-[2,6-difluoro-3-(1-naphthyl)benzoyl]-3-hydroxy-imidazolidin-4-one]"
19,≤ 1000 nM,"O=C1CN(C(=O)c2c(F)ccc(-c3ccc4ccccc4c3)c2F)C(c2cc(Br)cs2)N1O (centres unmarked) [Example 135, 2-(4-Bromo-2-thienyl)-1-[2,6-difluoro-3-(2-naphthyl)benzoyl]-3-hydroxy-imidazolidin-4-one]"
20,≤ 1000 nM,"O=C1CN(C(=O)c2c(F)ccc(-c3ccc(F)cc3)c2F)C(c2cc(Br)cs2)N1O (centres unmarked) [Example 136, 2-(4-Bromo-2-thienyl)-1-[2,6-difluoro-3-(4-fluorophenyl)benzoyl]-3-hydroxy-imidazolidin-4-one]"

# System: colon cancer
# Test: not given
# Conditions: mouse model for colon cancer; cited from earlier work
row,Compound,tumor growth
1,"Nc1nonc1C(=NO)Nc1ccc(F)c(Cl)c1 [compound 51, 4-amino-N-(3-chloro-4-fluorophenyl)-N′-hydroxy-1,2,5-oxadiazole-3-carboximidamide]",reduction of tumor growth
2,NS(=O)(=O)NCCNc1nonc1C(=NO)Nc1ccc(F)c(Br)c1 [epacadostat],further reduction of tumor growth

# System: not given
# Test: not given
# Conditions: randomized, open-label, phase 2, ovarian cancer patients; cited from earlier work
row,Compound,tolerability
1,NS(=O)(=O)NCCNc1nonc1C(=NO)Nc1ccc(F)c(Br)c1 [epacadostat],generally well tolerated

# Target: tryptophan 2,3-dioxygenase (TDO) (Homo sapiens, UniProt P48775)
# Sequence (P48775 whole entry, species assumed): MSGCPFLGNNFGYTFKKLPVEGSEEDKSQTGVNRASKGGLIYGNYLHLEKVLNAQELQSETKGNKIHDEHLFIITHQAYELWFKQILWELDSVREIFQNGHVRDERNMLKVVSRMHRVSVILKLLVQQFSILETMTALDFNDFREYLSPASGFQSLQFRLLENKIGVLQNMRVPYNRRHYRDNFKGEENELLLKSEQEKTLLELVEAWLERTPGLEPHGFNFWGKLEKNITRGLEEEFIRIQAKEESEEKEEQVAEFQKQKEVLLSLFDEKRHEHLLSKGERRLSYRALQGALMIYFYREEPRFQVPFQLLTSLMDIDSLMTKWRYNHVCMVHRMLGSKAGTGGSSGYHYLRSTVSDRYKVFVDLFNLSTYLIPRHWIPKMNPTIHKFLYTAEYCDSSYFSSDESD
# Test: not given
# Conditions: biochemical assays; cited from earlier work
row,Compound,inhibition of TDO activity
1,"Nc1nonc1C(=NO)Nc1ccc(F)c(Cl)c1 [compound 51, 4-amino-N-(3-chloro-4-fluorophenyl)-N′-hydroxy-1,2,5-oxadiazole-3-carboximidamide]","inhibit the activity of tryptophan 2,3-dioxygenase (TDO)"

# System: melanoma
# Test: not given
# Conditions: mouse model for melanoma; cited from earlier work
row,Compound,tumor growth
1,"Nc1nonc1C(=NO)Nc1ccc(F)c(Cl)c1 [compound 51, 4-amino-N-(3-chloro-4-fluorophenyl)-N′-hydroxy-1,2,5-oxadiazole-3-carboximidamide]",reduction of tumor growth

# System: plasma kynurenine levels
# Test: not given
# Conditions: phase 1, advanced solid malignancies, all doses; cited from earlier work
row,Compound,plasma kynurenine levels
1,NS(=O)(=O)NCCNc1nonc1C(=NO)Nc1ccc(F)c(Br)c1 [epacadostat],significant dose-dependent reductions
